Measurements: patent US7041704B2, “Methods of treating gastrointestinal tract disorders using sodium channel modulators” (Dynogen Pharmaceuticals, Inc., priority 2003, dated 2006)

Assays:
[1] = target: TTX-R sodium currents in GI tract afferent neurons (Rattus norvegicus, UniProt Q62968); assay: Whole cell patch-clamp, tonic block of TTX-R sodium currents, cumulative concentration-response; assay type: cell-based; settings: bath application; four GI tract afferent neurons
Procedure: (§1) Labeling of GI tract afferent neurons: Adult female Sprague-Dawley rats (150–300 g) were deeply anesthetized with pentobarbital anesthesia and placed on isoflurane maintenance anesthesia. A ventral midline incision was made through the abdominal skin and musculature, exposing the GI tract. Five injections of the fluorescent dyes Di-I (5 µl each of 25 mg/ml Di-I in DMSO) or Fast Blue (4% w/v) were made into the wall of the colon to label primary afferent fibers innervating the GI tract. The areas were rinsed with sterile saline to eliminate nonspecific spread of dye, and the incision was closed. […] Labeled neurons were identified in vitro using fluorescence optics. […]
(§2) In most experiments, neurons were incubated in culture medium containing the FITC-labeled lectin BSI-B4 (IB4, […]) at 37° C. for 5 min before recording. The coverslip was washed with extracellular recording solution for 1 min before being placed in a recording chamber mounted on the stage of an inverted microscope equipped with fluorescence optics. […]
(§3) Sodium currents were recorded from DRG neurons using standard electrophysiologic protocols. […] Currents were recorded using a patch-clamp amplifier and digitized at 3–10 kHz for acquisition. Neuronal input resistance and membrane capacitance were determined from the amplitude and kinetics of the current response to a voltage pulse from a holding potential of −50 mV. […]

[2] = system: sodium currents in colon DRG neurons; assay: Whole cell patch-clamp, activity-dependent (use-dependent) modulation of sodium currents, slow vs fast stimulation; assay type: cell-based, rat; settings: 100 µM lamotrigine; slow (0.2 Hz) vs fast (17 Hz) step depolarizations from −50 to 0 mV; three neurons; P<0.05 vs slow stimulation
Procedure: as §1, §2, §3

Sequence of TTX-R sodium currents in GI tract afferent neurons (Q62968 whole entry, looked up): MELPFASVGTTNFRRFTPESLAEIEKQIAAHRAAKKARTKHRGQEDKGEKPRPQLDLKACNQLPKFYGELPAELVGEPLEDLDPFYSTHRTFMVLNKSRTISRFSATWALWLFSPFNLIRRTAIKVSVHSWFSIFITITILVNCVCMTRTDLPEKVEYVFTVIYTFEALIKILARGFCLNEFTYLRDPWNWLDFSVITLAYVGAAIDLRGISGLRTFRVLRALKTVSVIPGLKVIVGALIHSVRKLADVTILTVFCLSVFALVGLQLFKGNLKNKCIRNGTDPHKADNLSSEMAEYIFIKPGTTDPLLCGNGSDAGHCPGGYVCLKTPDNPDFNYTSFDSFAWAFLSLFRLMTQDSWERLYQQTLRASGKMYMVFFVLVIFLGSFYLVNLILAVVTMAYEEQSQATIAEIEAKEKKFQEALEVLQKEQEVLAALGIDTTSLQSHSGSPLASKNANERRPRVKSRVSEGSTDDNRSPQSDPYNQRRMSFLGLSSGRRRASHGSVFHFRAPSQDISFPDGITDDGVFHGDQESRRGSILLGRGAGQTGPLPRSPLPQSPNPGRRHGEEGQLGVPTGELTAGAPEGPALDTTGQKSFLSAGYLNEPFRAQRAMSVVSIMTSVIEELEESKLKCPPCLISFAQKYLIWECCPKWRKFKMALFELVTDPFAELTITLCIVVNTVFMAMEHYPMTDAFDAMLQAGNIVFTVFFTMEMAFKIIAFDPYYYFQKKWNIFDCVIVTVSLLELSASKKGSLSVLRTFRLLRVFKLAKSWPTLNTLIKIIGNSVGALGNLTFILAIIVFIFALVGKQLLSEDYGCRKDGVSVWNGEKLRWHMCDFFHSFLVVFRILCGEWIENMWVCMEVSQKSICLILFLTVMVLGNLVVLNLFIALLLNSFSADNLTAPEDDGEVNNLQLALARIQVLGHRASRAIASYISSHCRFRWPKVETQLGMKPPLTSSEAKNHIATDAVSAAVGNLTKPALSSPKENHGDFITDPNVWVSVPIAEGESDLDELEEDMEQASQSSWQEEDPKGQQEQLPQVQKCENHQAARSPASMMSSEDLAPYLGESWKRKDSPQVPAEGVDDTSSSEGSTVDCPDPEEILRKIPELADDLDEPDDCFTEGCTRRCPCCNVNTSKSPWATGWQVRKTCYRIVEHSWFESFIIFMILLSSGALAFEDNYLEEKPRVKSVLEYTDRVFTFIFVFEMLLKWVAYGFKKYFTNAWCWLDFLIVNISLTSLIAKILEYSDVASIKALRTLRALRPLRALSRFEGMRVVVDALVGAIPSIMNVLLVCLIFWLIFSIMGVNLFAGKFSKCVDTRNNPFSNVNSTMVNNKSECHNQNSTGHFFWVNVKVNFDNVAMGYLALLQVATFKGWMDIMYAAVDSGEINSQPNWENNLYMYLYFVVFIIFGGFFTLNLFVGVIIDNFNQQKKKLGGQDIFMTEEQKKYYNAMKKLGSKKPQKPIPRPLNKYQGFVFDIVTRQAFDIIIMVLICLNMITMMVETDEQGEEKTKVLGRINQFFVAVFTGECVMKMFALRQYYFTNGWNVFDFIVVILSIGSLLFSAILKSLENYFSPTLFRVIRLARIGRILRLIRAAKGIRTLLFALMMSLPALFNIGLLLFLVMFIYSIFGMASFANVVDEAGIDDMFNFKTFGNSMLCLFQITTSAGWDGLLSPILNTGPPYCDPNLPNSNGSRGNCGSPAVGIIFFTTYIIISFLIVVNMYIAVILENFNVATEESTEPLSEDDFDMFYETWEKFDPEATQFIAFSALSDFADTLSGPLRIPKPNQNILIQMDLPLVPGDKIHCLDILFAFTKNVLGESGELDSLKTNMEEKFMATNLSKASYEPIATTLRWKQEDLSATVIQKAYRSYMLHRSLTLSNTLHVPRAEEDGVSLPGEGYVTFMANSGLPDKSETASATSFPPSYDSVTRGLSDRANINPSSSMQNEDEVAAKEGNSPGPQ

Row | SMILES | block of TTX-R sodium currents (in words) [1] | mean peak sodium current amplitude (mean % control amplitude) [2]
1 | Nc1c(Br)cc(Br)cc1CNC1CCC(O)CC1 (centres unmarked) [Ambroxol] | concentration-dependent reversible block | –
2 | Nc1nnc(-c2cccc(Cl)c2Cl)c(N)n1 [lamotrigine, 6-(2,3-Dichlorophenyl)-1,2,4-triazine-3,5-diamine] | – | decreased to a greater extent under fast stimulation conditions
